Experimental findings from the supplement of paper PMC9938120 are described below.

Common to all, as to assay: drug sensitivity score (DSS3, normalised partial AUC of % inhibition dose-response) (DSS (score)); higher = more sensitive (stronger inhibition of viability); extreme values may be limits of the assay
One test relates to FMOC02_2 (patient-derived low-grade serous ovarian cancer cells). Particulars: 72 h; library: FO5A; assay format: 2D, 384-well, CellTiter-Glo. The procedure, abridged: (§1)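 Early-passage (under 10) patient-derived ovarian cancer cells were dispensed onto 384-well flat clear-bottom plates pre-plated with compounds at five concentrations spanning a 10,000-fold range, then incubated 72 h at 37 °C, 5% CO2. Viability was read with CellTiter-Glo, and the data were processed in Breeze. The drug sensitivity score is a partial area under the percent-inhibition dose-response curve divided by the log of the upper asymptote, with higher values meaning greater sensitivity.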
In general terms: ATP-based viability assays read luminescence as a measure of living cells.

A further test has as its system FMOC02_3 (patient-derived low-grade serous ovarian cancer cells). The settings on record: 72 h; library: FO5A; assay format: 2D, 384-well, CellTiter-Glo. The procedure, abridged:
as §1

A further test has as its system FMOC03 (patient-derived mucinous ovarian cancer cells). Particulars: 72 h; library: FO5A; assay format: 2D, 384-well, CellTiter-Glo. The procedure, abridged: as §1
The test system of the next test is FMOC06 (patient-derived mucinous ovarian cancer cells). The settings on record: 72 h; library: FO5A; assay format: 2D, 384-well, CellTiter-Glo. The procedure, abridged: as §1
Another test has as its system FMOC09 (patient-derived high-grade serous ovarian cancer cells). The settings on record: 72 h; library: FO5A; assay format: 2D, 384-well, CellTiter-Glo. The procedure, abridged:
as §1

A further test concerns FMOC14 (patient-derived high-grade serous ovarian cancer cells). The settings on record: 72 h; library: FO5A; assay format: 2D, 384-well, CellTiter-Glo. The procedure, abridged: as §1
The subject of a further test is FMOC22 (patient-derived mucinous ovarian cancer cells). The settings on record: 72 h; library: FO5A; assay format: 2D, 384-well, CellTiter-Glo. The procedure, abridged:
as §1

A further test relates to FMOC24 (patient-derived high-grade serous ovarian cancer cells). Particulars: 72 h; library: FO5A; assay format: 2D, 384-well, CellTiter-Glo. The procedure, abridged: as §1
Another test deals with FMOC25_1 (patient-derived low-grade serous ovarian cancer cells). Particulars: 72 h; library: FO4B; assay format: 2D, 384-well, CellTiter-Glo. The procedure, abridged:
as §1

Another test relates to FMOC25_2 (patient-derived low-grade serous ovarian cancer cells). Particulars: 72 h; library: FO5A; assay format: 2D, 384-well, CellTiter-Glo. The procedure, abridged:
as §1

Take `CC/C(=C(\c1ccc(O)cc1)c1ccc(OCCN(C)C)cc1)c1ccccc1` [4-hydroxytamoxifen]: the drug sensitivity score in the test with FMOC02_2 worked out at 6.8; with FMOC02_3, 6.4; in the test with FMOC03, 6.1; in the test on FMOC06, 7.3; in the test on FMOC09, 5.1; in the test with FMOC14 it was 6.1. For the same molecule, the drug sensitivity score stood at 5.7 with FMOC22, 7.3 in the test on FMOC24, 2 in the test on FMOC25_1 and 3.2 in the test on FMOC25_2.
Regarding `Nc1ncnc2c1nc(N)n2[C@@H]1O[C@H](CO)[C@@H](O)[C@H]1O` [8-amino-adenosine], the drug sensitivity score was found to be 27.5 in the test on FMOC02_2; 21.7 in the test on FMOC02_3; 18.3 in the test with FMOC03; 20.3 in the test with FMOC06; 20.2 in the test with FMOC09; 16 in the test on FMOC14. In addition, the drug sensitivity score in the test on FMOC22 was found to be 18.6; with FMOC24, 18.8; in the test with FMOC25_1, 20.5; in the test on FMOC25_2, 18.6.
As for `Nc1ncnc2c1nc(Cl)n2[C@@H]1O[C@H](CO)[C@@H](O)[C@H]1O` [8-chloro-adenosine], the drug sensitivity score with FMOC02_2 was found to be 19.7; in the test on FMOC02_3, 18.2; with FMOC03 it was 2.4; in the test with FMOC06 it was 4.1; with FMOC09, 5.5; in the test with FMOC14, 3.3. The drug sensitivity score stood at 3.2 in the test with FMOC22, 6 in the test with FMOC24, 11.4 in the test on FMOC25_1 and 15.2 with FMOC25_2.
Take `COc1ccc(S(=O)(=O)Nc2cccnc2Nc2ccc(O)cc2)cc1` [ABT-751]: the drug sensitivity score with FMOC02_2 was 9.4; in the test with FMOC02_3, 9.5; in the test on FMOC03 it was 7.4; in the test with FMOC06, 7; in the test on FMOC09, 7.3; in the test on FMOC14, 1.3. Also, the drug sensitivity score came out at 6.8 with FMOC22, 1.8 in the test on FMOC24, 5 in the test with FMOC25_1 and 6.8 with FMOC25_2.
For the molecule `CC(C)[C@@H](CS(=O)(=O)C(C)C)N1C(=O)[C@@](C)(CC(=O)O)C[C@H](c2cccc(Cl)c2)[C@H]1c1ccc(Cl)cc1` [AMG-232], the drug sensitivity score with FMOC02_2 was found to be 14.9; with FMOC02_3, 26; in the test on FMOC03, 0; in the test with FMOC06, 0; in the test on FMOC09, 0; in the test on FMOC14 it was 0. Besides, the drug sensitivity score in the test on FMOC22 amounted to 0.8; in the test with FMOC24 it was 0; in the test on FMOC25_1 it was 5.6; in the test with FMOC25_2, 13.1.
`CC(C)[C@H](C(=O)Nc1ccc(C(=O)NO)cc1)c1ccccc1` [AR-42]: the drug sensitivity score with FMOC02_2 was determined as 11; in the test on FMOC02_3, 8.8; with FMOC03 it was 12.4; in the test with FMOC06, 10.6; in the test on FMOC09 it was 5.2; in the test on FMOC14, 11.5. For the same molecule, the drug sensitivity score in the test with FMOC22 is 8.7; in the test with FMOC24, 9.3; in the test with FMOC25_1, 10.1; in the test with FMOC25_2, 10.7.
`COc1cc(N2CCC(N3CCN(C)CC3)CC2)ccc1Nc1ncnc(Nc2ccccc2S(=O)(=O)C(C)C)n1` [ASP3026]: the drug sensitivity score in the test on FMOC02_2 was found to be 9.8; with FMOC02_3, 8.1; with FMOC03, 4; in the test on FMOC06 it was 4.9; with FMOC09, 7.2; with FMOC14, 0.8. Further, the drug sensitivity score in the test on FMOC22 came out at 4; in the test on FMOC24 it was 5.1; with FMOC25_1 it was 5.2; in the test on FMOC25_2, 8.6.
With `O=C(NC1CCNCC1)c1n[nH]cc1NC(=O)c1c(Cl)cccc1Cl` [AT7519], the drug sensitivity score was found to be 17.8 in the test with FMOC02_2; 22.1 in the test with FMOC02_3; 12.1 in the test with FMOC03; 16.3 in the test with FMOC06; 12.3 in the test on FMOC09; 12.5 in the test on FMOC14. Besides, the drug sensitivity score with FMOC22 amounted to 10; with FMOC24 it was 15.2; in the test with FMOC25_1, 17.6; in the test with FMOC25_2, 21.3.
With `O=C(Nc1c[nH]nc1-c1nc2ccc(CN3CCOCC3)cc2[nH]1)NC1CC1` [AT9283], the drug sensitivity score amounted to 4.1 in the test on FMOC02_2; 9.3 in the test with FMOC02_3; 3.4 in the test with FMOC03; 2.8 in the test on FMOC06; 5.7 with FMOC09; 1.8 in the test with FMOC14. Further, the drug sensitivity score in the test with FMOC22 came to 0.5; in the test with FMOC24, 4.7; with FMOC25_1 it was 0.1; with FMOC25_2 it was 5.1.
`CN[C@@H](C)C(=O)N[C@H]1CN(C(=O)CC(C)C)CC[C@H]2CC[C@@H](C(=O)NC(c3ccccc3)c3ccccc3)N2C1=O` [AT-406]: the drug sensitivity score in the test on FMOC02_2 worked out at 0; in the test with FMOC02_3, 0.3; with FMOC03, 1.5; in the test with FMOC06 it was 8.8; with FMOC09, 0; in the test with FMOC14, 5.4. The drug sensitivity score came out at 0 in the test with FMOC22, 24.9 in the test with FMOC24, 1.5 with FMOC25_1 and 5 with FMOC25_2.
For `CC[C@H](CC#N)OC(=O)N[C@@H](C)c1cccc(NC(=O)Nc2ccc(-c3cnco3)c(OC)c2)c1` [AVN944], the drug sensitivity score came out at 9.8 with FMOC02_2; 12.6 in the test with FMOC02_3; 13.4 in the test on FMOC03; 13.4 in the test with FMOC06; 11.2 in the test with FMOC09; 11 in the test on FMOC14. Besides, the drug sensitivity score in the test with FMOC22 amounted to 14.2; in the test with FMOC24 it was 6.45; in the test with FMOC25_1 it was 9.7; with FMOC25_2, 10.3.
Turning to `NC(=O)Nc1cc(-c2cccc(F)c2)sc1C(=O)N[C@H]1CCCNC1` [AZD7762], the drug sensitivity score with FMOC02_2 turned out to be 3.5; in the test on FMOC02_3, 6.1; with FMOC03, 1.5; in the test with FMOC06 it was 3.6; with FMOC09, 6.3; in the test on FMOC14, 6.2. Also, the drug sensitivity score with FMOC22 worked out at 3.3; with FMOC24, 9.15; in the test with FMOC25_1, 3.3; in the test on FMOC25_2 it was 4.5.
`COc1ccc(-c2ccc3c(N4CCOC[C@@H]4C)nc(N4CCOC[C@@H]4C)nc3n2)cc1CO` [AZD8055]: the drug sensitivity score was 28.6 in the test on FMOC02_2; 29.9 in the test on FMOC02_3; 20.7 in the test with FMOC03; 20.3 in the test with FMOC06; 14.5 with FMOC09; 16.2 with FMOC14. In addition, the drug sensitivity score turned out to be 17.4 in the test with FMOC22, 13.3 in the test with FMOC24, 30.9 in the test with FMOC25_1 and 28.8 in the test with FMOC25_2.
As for `Cc1ncc(-c2ccnc(Nc3ccc(S(C)(=O)=O)cc3)n2)n1C(C)C` [AZD-5438], the drug sensitivity score amounted to 12.4 in the test with FMOC02_2; 15.2 in the test on FMOC02_3; 7.5 with FMOC03; 8.2 in the test with FMOC06; 3.4 with FMOC09; 9.7 in the test on FMOC14. Moreover, the drug sensitivity score in the test with FMOC22 was found to be 7; in the test with FMOC24 it was 13.6; in the test on FMOC25_1, 8.1; with FMOC25_2, 12.8.
With `C=CCNC1=C2C[C@@H](C)C[C@H](OC)[C@H](O)[C@@H](C)/C=C(\C)[C@H](OC(N)=O)[C@@H](OC)/C=C\C=C(/C)C(=O)NC(=CC1=O)C2=O` [Tanespimycin], the drug sensitivity score in the test with FMOC25_1 was 14.6.
The same measure, in the same setting: the same measure for `S=P(N1CC1)(N1CC1)N1CC1` [Thio-TEPA]: 0.7; for `O=C(O)CSc1cc(NS(=O)(=O)c2ccc(Br)cc2)c2ccccc2c1O` [UMI-77]: 14.3; for `Oc1ncc(N(CCCl)CCCl)c(O)n1` [Uramustine]: 0.1.
The same measure, in the same setting: the figure for `O=c1ncn2nc(Sc3ccc(F)cc3F)ccc2c1-c1c(Cl)cccc1Cl` [VX 745] is 0; for `CCn1c(=O)c(-c2cc[nH]n2)cc2c(C)nc(N)nc21` [Voxtalisib] it is 10.6.
Molecule `O=C(Nc1ccc(-c2ccnc(Nc3ccc(N4CCOCC4)cc3)n2)cc1)C1CCCN1` (stereo not given) [XL019] had a drug sensitivity score in the test on FMOC25_1 of 0.5.
Same read-out and setting: the figure for `COc1cc2c(Nc3ccc(Cl)c(Cl)c3F)ncnc2cc1OC[C@@H]1C[C@@H]2CN(C)C[C@@H]2C1` [XL-647] is 9.1.
On to `COCC[n+]1c2c(n(Cc3cnccn3)c1C)C(=O)c1ccccc1C2=O` [YM155], for which the drug sensitivity score in the test on FMOC25_1 amounted to 35.5.
In the test on FMOC25_1, `c1ccc(Cn2c(-c3ccc(OC[C@H](C4CCNCC4)n4c(-c5ccccc5)nc5ccccc54)cc3)nc3ccccc32)cc1` [deltarasin] displayed a drug sensitivity score of 5.5.
